Key:
Assay in all cases: combination Emax (second highest fraction inhibited in the dose matrix, 72 h); higher = more inhibition; extreme values may be limits of the assay
[1] = test system: EBC-1 (Squamous Cell Lung Carcinoma)
Summary of the method: (§1)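 Cell lines grown in DMEM/F12 or RPMI with 10% FBS were plated in 1536-well plates and held 24 hours at 37°C, 5% CO2 before 72 hours of exposure to two-drug dose matrices, with DMSO typically at 0.2%. CellTiter-Glo 2.0 luminescence gave viability, which was converted to inhibition. Vehicle wells were set to 0 and blank wells to 1. Combination Emax is the second-highest inhibition in the matrix, and Bliss excess is the observed combination effect minus the expected EA + EB − EA·EB, where EA and EB are the single-agent effects.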

EW-13 (Ewing's Sarcoma) = test system: EW-13 (Ewing's Sarcoma)
Summary of the method: as §1

GOTO (Neuroblastoma) = test system: GOTO (Neuroblastoma)
Summary of the method: as §1

IMR-5 (Neuroblastoma) = test system: IMR-5 (Neuroblastoma)
Summary of the method: as §1

[2] = test system: KINGS-1 (Low Grade Glioma)
Summary of the method: as §1

[3] = test system: KLE (Endometrial Carcinoma)
Summary of the method: as §1

[4] = test system: KP-2 (Pancreatic Carcinoma)
Summary of the method: as §1

[5] = test system: KU-19-19 (Bladder Carcinoma)
Summary of the method: as §1

[6] = test system: KYSE-50 (Esophageal Squamous Cell Carcinoma)
Summary of the method: as §1

[7] = test system: LC4-1 (B-Lymphoblastic Leukemia)
Summary of the method: as §1

[8] = test system: LOU-NH91 (Squamous Cell Lung Carcinoma)
Summary of the method: as §1

[9] = test system: MFE-319 (Endometrial Carcinoma)
Summary of the method: as §1

[10] = test system: NCI-N87 (Gastric Carcinoma)
Summary of the method: as §1

NH-12 (Neuroblastoma) = test system: NH-12 (Neuroblastoma)
Summary of the method: as §1

[11] = test system: OVISE (Ovarian Carcinoma)
Summary of the method: as §1

RPMI-7951 (Melanoma) = test system: RPMI-7951 (Melanoma)
Summary of the method: as §1

[12] = test system: SCC-3 (B-Cell Non-Hodgkin's Lymphoma)
Summary of the method: as §1

[13] = test system: SCC-9 (Oral Cavity Carcinoma)
Summary of the method: as §1

[14] = test system: TGBC11TKB (Gastric Carcinoma)
Summary of the method: as §1

U-87-MG (Glioblastoma) = test system: U-87-MG (Glioblastoma)
Summary of the method: as §1

SMILES	combination Emax [1]	combination Emax (EW-13 (Ewing's Sarcoma))	combination Emax (GOTO (Neuroblastoma))	combination Emax (IMR-5 (Neuroblastoma))	combination Emax [2]	combination Emax [3]	combination Emax [4]	combination Emax [5]	combination Emax [6]	combination Emax [7]	combination Emax [8]	combination Emax [9]	combination Emax [10]	combination Emax (NH-12 (Neuroblastoma))	combination Emax [11]	combination Emax (RPMI-7951 (Melanoma))	combination Emax [12]	combination Emax [13]	combination Emax [14]	combination Emax (U-87-MG (Glioblastoma))
CC1(C)CCC(CN2CCN(c3ccc(C(=O)NS(=O)(=O)c4ccc(NCC5CCOCC5)c([N+](=O)[O-])c4)c(Oc4cnc5[nH]ccc5c4)c3)CC2)=C(c2ccc(Cl)cc2)C1 [Venetoclax] + C=CCn1c(=O)c2cnc(Nc3ccc(N4CCN(C)CC4)cc3)nc2n1-c1cccc(C(C)(C)O)n1 [AZD1775] (first compound max 1 µM, partner max 1 µM)	0.248	0.129	0.921	0.924	0.567	0.51	0.364	0.841	0.647	1	0.436	0.858	0.8	0.952	0.669	0.731	0.903	0.294	0.942	0.265
Cn1cnc2c(F)c(Nc3ccc(Br)cc3Cl)c(C(=O)NOCCO)cc21 [Selumetinib] + C=CCn1c(=O)c2cnc(Nc3ccc(N4CCN(C)CC4)cc3)nc2n1-c1cccc(C(C)(C)O)n1 [AZD1775] (first compound max 10 µM, partner max 1 µM)	0.923	0.0949	0.928	0.894	0.361	0.539	0.54	0.917	0.605	0.874	0.423	0.671	0.712	0.891	0.593	0.741	0.896	0.518	0.912	0.252
CN(CCO)CC[C@H](CSc1ccccc1)Nc1ccc(S(=O)(=O)NC(=O)c2ccc(N3CCC([C@@H](O)c4ccccc4-c4ccc(Cl)cc4)CC3)cc2)cc1S(=O)(=O)C(F)(F)F [AZD4320] + C[C@@H](Nc1cc(F)cc(F)c1)c1cc(C(=O)N(C)C)cc2c(=O)cc(N3CCOCC3)oc12 [AZD8186] (first compound max 1 µM, 7x7, partner max 3 µM)	0.972	0.911	0.831	1	0.629	0.61	0.827	0.315	0.283	1	0.768	0.427	0.638	0.998	0.881	0.701	0.543	0.746	0.338	0.527
COc1nnc2ccc(N3CCC(c4ccc(OCCN5CCN(C)C(=O)[C@H]5C)cc4)CC3)nn12 [AZD5153] + CC1(C)CCC(CN2CCN(c3ccc(C(=O)NS(=O)(=O)c4ccc(NCC5CCOCC5)c([N+](=O)[O-])c4)c(Oc4cnc5[nH]ccc5c4)c3)CC2)=C(c2ccc(Cl)cc2)C1 [Venetoclax] (first compound max 1 µM, 7x7, partner max 1 µM)	0.802	0.481	0.813	0.885	0.159	0.609	0.354	0.63	0.501	1	0.641	0.324	0.592	0.737	0.549	0.559	0.887	0.407	0.324	0.546
COc1nnc2ccc(N3CCC(c4ccc(OCCN5CCN(C)C(=O)[C@H]5C)cc4)CC3)nn12 [AZD5153] + Cc1c2c(nn1C)CSCc1cc(n(C)n1)CSc1cc(c3ccccc3c1)OCCCc1c(C(=O)O)n(C)c3c-2c(Cl)ccc13 [AZD5991] (first compound max 1 µM, 7x7, partner max 1 µM)	0.862	0.68	0.919	1	0.186	0.668	0.427	0.775	0.713	1	0.705	0.985	0.551	0.672	0.633	0.825	0.997	0.601	0.789	0.559
CN(CCO)CC[C@H](CSc1ccccc1)Nc1ccc(S(=O)(=O)NC(=O)c2ccc(N3CCC([C@@H](O)c4ccccc4-c4ccc(Cl)cc4)CC3)cc2)cc1S(=O)(=O)C(F)(F)F [AZD4320] + Cc1cc2ncnn2cc1Nc1ncc2c(n1)n(C1CCOCC1)c(=O)n2C [AZD7648] (first compound max 1 µM, 7x7, partner max 10 µM)	0.947	0.672	0.633	0.738	0.466	0.337	0.857	0.119	0.096	1	0.346	0.264	0.544	0.927	0.779	0.516	0.337	0.306	0.237	0.311
